Measured values taken from patent US10745365B2, “Luminogenic and fluorogenic compounds and methods to detect molecules or conditions” (Promega Corporation, priority 2005, dated 2020).

Assays:
Assay type in all cases: biochemical
beta-glucuronidase (GUS) = target: T1, beta-glucuronidase (GUS) (Homo sapiens, UniProt P08236); test: Beta-glucuronidase (GUS) assay
T1 construct: purchased Sigma-Aldrich
T1 sequence (P08236 23-651): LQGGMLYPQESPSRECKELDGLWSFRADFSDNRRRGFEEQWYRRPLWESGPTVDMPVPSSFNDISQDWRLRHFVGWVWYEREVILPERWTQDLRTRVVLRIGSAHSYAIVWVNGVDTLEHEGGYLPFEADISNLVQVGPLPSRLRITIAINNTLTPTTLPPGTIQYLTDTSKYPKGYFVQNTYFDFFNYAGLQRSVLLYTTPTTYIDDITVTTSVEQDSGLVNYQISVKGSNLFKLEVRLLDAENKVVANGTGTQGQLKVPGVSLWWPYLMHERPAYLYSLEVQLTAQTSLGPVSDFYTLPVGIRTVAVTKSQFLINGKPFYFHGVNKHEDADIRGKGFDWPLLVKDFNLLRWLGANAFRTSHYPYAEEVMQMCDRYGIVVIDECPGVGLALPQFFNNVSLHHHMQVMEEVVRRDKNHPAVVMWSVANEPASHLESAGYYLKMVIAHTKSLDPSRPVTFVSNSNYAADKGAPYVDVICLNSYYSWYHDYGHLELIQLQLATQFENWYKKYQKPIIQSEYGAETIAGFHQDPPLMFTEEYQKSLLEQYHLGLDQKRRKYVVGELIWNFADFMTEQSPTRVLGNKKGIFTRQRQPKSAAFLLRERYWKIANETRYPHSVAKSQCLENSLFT
Experimental: The source of the human enzyme was Sigma-Aldrich. GUS was incubated with the substrate in 50 mM MES, pH 6.3, for 15 minutes.

GST M1-1 = target: T2, GST M1-1 (Homo sapiens, UniProt P09488, K173N); test: Luminescent GST assay with GST M1-1; conditions: light generating reaction
T2 construct: purchased Sigma
T2 sequence (P09488 1-218 K173N): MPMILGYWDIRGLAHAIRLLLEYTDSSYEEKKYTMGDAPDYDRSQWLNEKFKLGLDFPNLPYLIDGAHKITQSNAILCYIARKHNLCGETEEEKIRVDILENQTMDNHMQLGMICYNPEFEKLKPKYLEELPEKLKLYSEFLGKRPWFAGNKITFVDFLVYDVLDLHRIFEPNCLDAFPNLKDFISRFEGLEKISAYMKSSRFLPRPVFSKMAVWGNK

[1] = tested on: panel of recombinant human P450s; test: Two-step luminescent screen of luciferin derivatives against a panel of recombinant human P450s and HLM; conditions: 50 μM substrate, panel of FIGS. 17-18
Experimental: P450s are Supersomes™ purchased from Discovery Labware (BD/Gentest). […] HLM is human liver microsomes.
1× substrate concentration: 50 μM.
The HLM reactions contained […] reaction, except where indicated otherwise. Control insect cell membranes were at 50 μg/50 μL.
For FIG. 20, the panel of human P450s was screened as described above.

[2] = target: T3, yeast alcohol dehydrogenase (Saccharomyces cerevisiae, UniProt P00330); test: Conversion of luciferol by yeast alcohol dehydrogenase; conditions: room temperature
T3 construct: purchased Sigma Chem Co. A 7011
T3 sequence (P00330 1-348): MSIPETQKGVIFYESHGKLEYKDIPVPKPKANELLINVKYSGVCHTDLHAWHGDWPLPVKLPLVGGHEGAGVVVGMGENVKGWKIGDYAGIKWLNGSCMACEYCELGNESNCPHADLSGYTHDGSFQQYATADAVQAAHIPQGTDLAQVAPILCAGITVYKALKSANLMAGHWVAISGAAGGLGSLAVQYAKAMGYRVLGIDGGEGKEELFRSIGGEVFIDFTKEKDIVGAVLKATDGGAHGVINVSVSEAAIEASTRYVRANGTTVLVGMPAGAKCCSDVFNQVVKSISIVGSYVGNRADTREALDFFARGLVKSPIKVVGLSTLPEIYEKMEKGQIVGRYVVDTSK
Experimental: A luciferin derivative, luciferol, was employed as a substrate for alcohol dehydrogenase (ADH). The derivative was tested in a two step format. For the first step, the derivative was added to a mixture with one of four ADHs. At different times after the reaction was initiated, a portion was removed and mixed with a luciferase reaction mixture. Reactions in which light production increased over time indicate that luciferol is a substrate for the ADH in that reaction.
Y ADH solution: 7500 units of yeast alcohol dehydrogenase (Sigma Chem Co. A 7011) was dissolved in 1 ml of 50 mM Bis Tris pH 6.5.
NAD+ solution: 66 mg of NAD+(Sigma Chem. Co. N 1511-250) was dissolved in 2 ml of Bis Tris, pH 6.5 and 8 ml of water.
Luciferol solution: approximately 4 mg of luciferol was dissolved in 1 ml of dimethylformamide (Aldrich 27,054-7).
AU reactions were kept at room temperature.

Cc1cc(=O)oc2cc(O[C@@H]3O[C@H](C(=O)O)[C@@H](O)[C@H](O)[C@H]3O)ccc12 [4-methylumbelliferyl glucuronide]
signal-to-noise, fluorescence (beta-glucuronidase (GUS); [GUS] 4.3 ng/ml): 7.5
signal-to-noise, fluorescence (beta-glucuronidase (GUS); [GUS] 8.7 ng/ml): 15.6
signal-to-noise, fluorescence (beta-glucuronidase (GUS); [GUS] 34.7 ng/ml): 76.5
signal-to-noise, fluorescence (beta-glucuronidase (GUS); [GUS] 69.4 ng/ml): 164.6
signal-to-noise, fluorescence (beta-glucuronidase (GUS); [GUS] 138.8 ng/ml): 376.8
signal-to-noise, fluorescence (beta-glucuronidase (GUS); [GUS] 277.5 ng/ml): 861.4

COC(=O)[C@H]1CSC(c2ccc3cc(Oc4ccc(C(F)(F)F)cc4[N+](=O)[O-])ccc3n2)=N1 [GST-4, Methyl 6-(2-nitro-4-trifluoromethyl-phenoxy)quinolinyl-luciferin ester]
GST preference (GST M1-1): better substrate for GST M1-1 in a light generating reaction than GST A1-1

COc1ccc2nc(C3=NC(C(=O)O)CS3)ccc2c1 (centres unmarked) [Quinolylluciferin 6-methyl ether]
P450 enzyme activity / selectivity (words) [1]: preferred substrate for 1A2 and 4A1 1
P450 enzyme activity / selectivity (words) ([1]; listed as quinolyl luciferin-6-methyl ether): enhanced selectivity for CYP4A11

O=C(O)C1CSC(c2nc3ccc(OCc4cccc(CN5CCN(c6ccccc6)CC5)c4)cc3s2)=N1 (centres unmarked) [Luciferin 3-(4-phenylpiperazin-1-yl)methylbenzyl ether]
P450 enzyme activity / selectivity (words) [1]: selective for three members of the CYP3A subfamily, CYP3A4, CYP3A5 and CYP3A7
P450 enzyme activity / selectivity (words) ([1]; listed as 6′(3-((4-phenylpiperizin-1-yl))methyl)benzyloxy) luciferin): did not cross react with 4F1 2

CC(C)COC(=O)Nc1ccc2nc(C3=NC(C(=O)O)CS3)sc2c1 (centres unmarked) [N-isobutoxycarbonyl aminoluciferin]
P450 enzyme activity / selectivity (words) [1]: strong selectivity for CYP1A1

4-(O-methyl)-6-(O-methyl)-luciferin
P450 enzyme activity / selectivity (words) [1]: enhanced selectivity for 1 A2, 2C8 and 2C9

O=C(O)[C@H]1CSC(c2nc3ccc(OCc4c(F)c(F)c(F)c(F)c4F)cc3s2)=N1 [6′-(2,3,4,5,6-pentafluorobenzyloxy)-luciferin]
P450 enzyme activity / selectivity (words) [1]: selective for three members of the CYP3A subfamily, CYP3A4, CYP3A5 and CYP3A7
P450 enzyme activity / selectivity (words) ([1]; listed as 6(2,3,4,5,6 pentafluorbenzyloxy)-luciferin): showed substantial activity with CYP3A4 and did not show substantial cross reactivity with CYP4F12

COc1ccc2nc(C3=N[C@@H](C(=O)NN)CS3)sc2c1 [luciferin-6-methylether hydrazide]
P450 enzyme activity / selectivity (words) [1]: good selectivity for CYP 1A2 over the other P450s tested

COC(=O)[C@H]1CSC(c2nc3ccc(OC)cc3s2)=N1 [carboxyl ester of luciferin-ME, carboxyl methyl ester of luciferin-ME]
P450 enzyme activity / selectivity (words) [1]: reacted strongly with several other P450s including CYP2C19

COc1ccc2nc(C3=NC(C(=O)OCc4cccnc4)CS3)sc2c1 (centres unmarked)
P450 enzyme activity / selectivity (words) [1]: preference for 2D6, 1A1 and 1A2

O=C(OCc1cccnc1)[C@H]1CSC(c2nc3ccccc3s2)=N1 [carboxyl picolinyl ester of luciferin-H]
P450 enzyme activity / selectivity (words) [1]: preference for 2C19, 1A1 and 1A2

COc1ccc2nc(C3=N[C@@H](C(=O)O)CS3)sc2c1 [luciferin 6-methyl ether, reference compound]
P450 enzyme activity / selectivity (words) [1]: extremely low activity with CYP2D6

O=C(O)[C@H]1CSC(c2nc3ccc(OCc4ccccc4C(F)(F)F)cc3s2)=N1 [6′(o-trifluoromethylbenzyloxy)-luciferin]
P450 enzyme activity / selectivity (words) [1]: selective for three members of the CYP3A subfamily, CYP3A4, CYP3A5 and CYP3A7
P450 enzyme activity / selectivity (words) ([1]; listed as 6—O-trifluoromethylbenzyl luciferin): showed substantial activity with CYP3A4 and did not show substantial cross reactivity with CYP4F12

OC[C@H]1CSC(c2nc3ccc(O)cc3s2)=N1 [luciferol]
Light produced ([2]; Rx 7: 5 μl yeast ADH, 30 minutes after luciferol addition): 6.184
Light produced ([2]; Rx 7: 5 μl yeast ADH, 60 minutes after luciferol addition): 6.052
Light produced ([2]; Rx 7: 5 μl yeast ADH, 95 minutes after luciferol addition): 5.980
Light produced ([2]; Rx 7: 5 μl yeast ADH, 190 minutes after luciferol addition): 6.640
Light produced ([2]; Rx 7: 5 μl yeast ADH, 280 minutes after luciferol addition): 7.988
Light produced ([2]; Rx 8: 10 μl yeast ADH, 30 minutes after luciferol addition): 6.126
Light produced ([2]; Rx 8: 10 μl yeast ADH, 60 minutes after luciferol addition): 5.468
Light produced ([2]; Rx 8: 10 μl yeast ADH, 95 minutes after luciferol addition): 5.552
Light produced ([2]; Rx 8: 10 μl yeast ADH, 190 minutes after luciferol addition): 6.198
Light produced ([2]; Rx 8: 10 μl yeast ADH, 280 minutes after luciferol addition): 6.903
Light produced ([2]; Rx 9: 20 μl yeast ADH, 30 minutes after luciferol addition): 5.406
Light produced ([2]; Rx 9: 20 μl yeast ADH, 60 minutes after luciferol addition): 5.608
Light produced ([2]; Rx 9: 20 μl yeast ADH, 95 minutes after luciferol addition): 6.301
Light produced ([2]; Rx 9: 20 μl yeast ADH, 190 minutes after luciferol addition): 5.825
Light produced ([2]; Rx 9: 20 μl yeast ADH, 280 minutes after luciferol addition): 6.734
Light produced ([2]; Rx 10: 20 μl yeast ADH, 10 μl luciferol, 30 minutes after luciferol addition): 9.672
Light produced ([2]; Rx 10: 20 μl yeast ADH, 10 μl luciferol, 60 minutes after luciferol addition): 9.531
Light produced ([2]; Rx 10: 20 μl yeast ADH, 10 μl luciferol, 95 minutes after luciferol addition): 10.00
Light produced ([2]; Rx 10: 20 μl yeast ADH, 10 μl luciferol, 190 minutes after luciferol addition): 10.36
Light produced ([2]; Rx 10: 20 μl yeast ADH, 10 μl luciferol, 280 minutes after luciferol addition): 11.71

O=C(O)C1CSC(c2ccc3cc(OCc4ccccc4)ccc3n2)=N1 (centres unmarked) [quinolylluciferin 6-benzyl ether]
P450 enzyme activity / selectivity (words) [1]: preferred substrate for 3A7, and to a lesser degree a substrate for 3A4 and 2C8

O=C(O)[C@H]1CSC(c2nc3ccc(OCSc4ccc(Cl)cc4)cc3s2)=N1 [6′-p-chlorophenylthiol-methoxy-luciferin, 6-(4-Chloro-phenylthiomethoxy)luciferin]
P450 enzyme activity / selectivity (words) [1]: showed selectivity for CYP3A7
